Experiments:
human MCHR1 [1] = molecular target: T1, human MCHR1 (Homo sapiens, UniProt Q99705); test: 125I-MCH competitive binding assay (SPA) with clone 43 membranes; details: competition with 125I-MCH, clone 43 membranes (AV12 cells expressing human MCHR1); Ki from IC50 by Cheng-Prusoff; tested in duplicate
T1 construct: The full-length cDNA for human MCHR1 was cloned from a human adult brain cDNA library; expressed in transfected cells; host or cells: AV12 cells previously transfected with Gα15
T1 sequence (Q99705 whole entry): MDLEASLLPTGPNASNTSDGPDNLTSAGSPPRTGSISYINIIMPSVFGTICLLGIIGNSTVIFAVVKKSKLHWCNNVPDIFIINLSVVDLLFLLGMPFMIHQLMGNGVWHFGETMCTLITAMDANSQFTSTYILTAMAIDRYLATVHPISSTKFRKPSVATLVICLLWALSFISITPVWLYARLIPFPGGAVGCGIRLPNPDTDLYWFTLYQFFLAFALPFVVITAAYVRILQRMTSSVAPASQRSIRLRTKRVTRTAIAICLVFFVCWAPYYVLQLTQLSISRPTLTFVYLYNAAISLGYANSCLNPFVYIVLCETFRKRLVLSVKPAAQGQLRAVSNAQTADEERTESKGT
From the text: (§1) The full-length cDNA for human MCHR1 was cloned from a human adult brain cDNA library (Edge Biosystems, Cat. 38356) by standard polymerase chain reaction (PCR) methodology employing the following primers: sense, 5′-GCCACCATGGACCT GGAAGCCTCGCTGC-3′; anti-sense, 5′-[…]-3′.
(§2) In order to generate cell lines stably expressing MCHR1, the insert was then subcloned into the Xba I and Not I sites of pcDNA(+)-3.1-neomycin (Invitrogen). After purification by Qiagen Maxi-prep kit (QIAGEN, Inc.), the plasmid was transfected by Fugene 6 (Roche Applied Science) into AV12 cells that had been previously transfected with the promiscuous G protein Gα15. The transfected cells were selected by
(§3) Both the ^125I-MCH binding and functional GTPγ^35S binding assays employed membranes isolated from a clone designated as clone 43. Typically, cells from 20 confluent T225 flasks were processed by washing the monolayers in cold phosphate-buffered saline (PBS), scraping the cells into same and re-suspending the cell pellet in 35 ml of 250 mM Sucrose, 50 mM HEPES, pH 7.5, 1 mM MgCl2, 24 μg/ml DNase I, and protease inhibitors (1 Complete® tablet, per 50 ml of buffer prepared, Roche Diagnostics). After incubation on ice for 5 min, cells were disrupted with 20–25 strokes of a Teflon/Glass homogenizer attached to an overhead motorized stirrer, and the homogenate was centrifuged at 40,000 rpm in Beckman Type 70.1 Ti rotor. The pellets were re-suspended in 250 mM Sucrose, 50 mM HEPES, pH 7.5, 1.5 mM CaCl2, 1 mM MgSO4 and protease inhibitors by Teflon/Glass homogenization to achieve a protein concentration of ˜3–5 mg/ml (Pierce BCA assay with Bovine serum albumin as standard).
Aliquots were stored at −70° C. Binding of compounds to MCHR1 was assessed in a competitive binding assay employing ^125I-MCH, compound and clone 43 membranes. Briefly, assays are carried out in 96-well Costar 3632 white opaque plates in a total volume of 200 μl containing 25 mM HEPES, pH 7.5, 10 mM CaCl2, 2 mg/ml bovine serum albumin, 0.5% dimethyl sulfoxide (DMSO), 4 μg of clone 43 membranes, […] ^125I-MCH (NEN), 1.0 mg of wheat germ agglutinin scintillation proximity assay beads (WGA-SPA beads, Amersham) and a graded dose of test compound. Non-specific binding is assessed in the presence of 1 μM unlabeled MCH. Bound ^125I-MCH is determined by placing sealed plates in a Microbeta Trilux (Wallac) and counting after a 5 hr delay.
IC50 values (defined as the concentration of test compound required to reduce specific binding of ^125I-MCH by 50%) are determined by fitting the concentration-response data to a 4-parameter model (max response, min response, Hill coefficient, IC50) using Excel. Ki values are calculated from IC50 values using the Cheng-Prusoff approximation as described by Cheng et al. (Relationship between the inhibition constant (Ki) and the concentration of inhibitor which causes 50% inhibition (IC50) of an enzymatic reaction, Biochem. Pharmacol., 22: 3099–3108 (1973)). The Kd for ^125I-MCH is determined independently from a saturation binding isotherm.

human MCHR1 [2] = molecular target: T1, human MCHR1; test: Inhibition of MCH-stimulated GTPγ35S binding to clone 43 membranes (functional antagonism); format: biochemical; details: inhibition of GTPγ35S binding stimulated by 40 nM MCH (about EC90), Kb from IC50 by modified Cheng-Prusoff (Leff and Dougal), tested in duplicate
From the text: as §1, §2, §3
Functional antagonism of MCH activity is assessed by measuring the ability of test compound to inhibit MCH-stimulated binding of GTPγ^35S to clone 43 membranes. Briefly, assays are carried out in Costar 3632 white opaque plates in a total volume of 200 μl containing 25 mM Hepes, pH 7.5, 5 mM MgCl2, 10 μg/ml saponin, 100 mM NaCl, 3 μM GDP, 0.3 nM GTPγ^35S, 40 nM MCH (approximately equal to EC90), 20 μg of clone 43 membranes, 1.0 mg of wheat germ agglutinin scintillation proximity assay beads (WGA-SPA beads, Amersham) and a graded dose of test compound. The plates are sealed and left for 16–18 hrs at 4° C. After a 1 hr delay to allow plates to equilibrate to ambient temperature, bound GTPγ^35S is determined by counting in a Microbeta Trilux (Wallac).
IC50 values (defined as the concentration of test compound required to reduce MCH-stimulated GTPγ^35S binding by 50%) are determined by fitting the concentration-response data to a 4-parameter model (max response, min response, Hill coefficient, IC50) using Excel. Kb values are calculated from IC50 values using a modification of the Cheng-Prusoff approximation as described by Leff and Dougal (Further concerns over Cheng-Prusoff analysis, Trends Pharmacol. Sci. 14: 110–112 (1993)) after verifying competitive antagonism by Schild analysis. The EC50 for MCH alone is determined independently. The MCHR1 binding and functional activities of 24 compounds in the oxadiazole series (tested in duplicate) are shown in Table 1

[3] = test system: Diet-induced obese male Long-Evans rats; test: Block of MCH-stimulated food intake after intracerebroventricular injection; format: in vivo, rat; details: 82 nmol compound plus 2.1 nmol MCH, ICV; food intake at 2, 4 and 6 hours after injection; n=6 per group; p<0.05 vs. MCH alone; FIG. 1
Method: Diet-induced obese male Long-Evans rats (Harlan, Ind.) weighing 500–550 g at time of surgery were anesthetized with isoflurane. Stainless steel cannula guides (5 mm length, 26 gauge, Plastics One, Va.) were stereotaxically implanted in the lateral ventricle anteroposteriority: 0.8 mm caudal to bregma; and lateral: 1.5 mm from midline suture. Animals were individually housed in a temperature regulated room (24° C.) with a reverse 12 hour light/dark cycle (dark 10:00/22:00). Water and food (Teklad 95217, Harlan, Wis.) were available ad libitum. After surgery, animals were allowed to recover 7 days before experimental use. On test day, food was removed 1 hr prior to testing and animals (4 groups, n=6 per group) were injected between 0900 and 1000 with 5 μl of vehicle (artificial CSF), 2.1 nmol MCH, 82 nmol of compound of example 136, and MCH plus compound of example 136. Cumulative food intake was measured at 2, 4 and 6 hours after injection.

SMILES | Ki (human MCHR1 [1]) [nM] | Kb (human MCHR1 [2]) [nM] | effect on orexigenic effect of exogenous MCH (cumulative food intake) [3]
CN(C)CCCOc1ccc(-c2nnc(CSCCOc3ccccc3)o2)cc1 [drawing 52] | 16 | 11.9 | –
O=C(NCCN1CCCCC1)Nc1ccc(-c2nnc(CSCCOc3ccccc3)o2)cc1 [drawing 42] | 5.6 | 14.7 | –
CN(C)CCOc1ccc(-c2cnc(CSCCOc3ccccc3)o2)cc1 | 13.3 | 9.4 | –
c1ccc(OCCSCc2nnc(-c3ccc(OCCN4CCCCC4)cc3)o2)cc1 [drawing 45] | 9.2 | 19.8 | –
C(=C\c1ccc(-c2nnc(CSCCOc3ccccc3)o2)cc1)/CN1CCCC1 [drawing 38] | 1.9 | 6 | –
C(=C\c1ccc(-c2nnc(CSCCOc3ccccc3)o2)cc1)/CN1CCCC1 [Example 136, (E)-2-{[(2-phenoxyethyl)thio]methyl}-5-[4-(3-pyrrolidinopropen-1-yl)phenyl]-1,3,4-oxadiazole] | – | – | completely blocked the orexigenic effect of exogenous MCH
CN(C)CCOc1ccc(-c2nnc(CSCCOc3ccccc3)o2)cc1 [drawing 41] | 5.3 | 13.6 | –
O=C(NCCN1CCCC1)Nc1ccc(-c2nnc(CSCCOc3ccccc3)o2)cc1 | 9 | 20 | –
CN(C)CCCOc1ccc(-c2nnc(CSCc3cc4ccccc4o3)o2)cc1 | 16.1 | 35.4 | –
CC(C)N(CCCCOc1ccc(-c2nnc(CSCCOc3ccccc3)o2)cc1)C(C)C [drawing 59] | 63.3 | 52.1 | –
c1ccc(OCCSCc2ncc(-c3ccc(OCCCN4CCCC4)cc3)o2)cc1 | 10.2 | 16.5 | –
c1ccc(OCCSCc2ncc(-c3ccc(OCCN4CCCC4)cc3)o2)cc1 | 5.8 | 12 | –
c1ccc(OCCSCc2nnc(-c3ccc(OCCCCN4CCCCCC4)cc3)o2)cc1 [drawing 57] | 37.9 | 31.3 | –
c1ccc(OCCSCc2ncc(-c3ccc(OCCCN4CCCCC4)cc3)o2)cc1 | 17.9 | 15.9 | –
CN(C)CCCOc1ccc(-c2coc(CSCCOc3ccccc3)n2)cc1 | 35 | 41.5 | –
CN(C)CCNC(=O)Nc1ccc(-c2nnc(CSCCOc3ccccc3)o2)cc1 | 10.4 | 16.2 | –
CN1CCC[C@@H]1CCOc1ccc(-c2nnc(CSCCOc3ccccc3)o2)cc1 | 12.9 | 39.6 | –
CC(C)N(CCCOc1ccc(-c2nnc(CSCCOc3ccccc3)o2)cc1)C(C)C [drawing 60] | 140 | 145 | –
CN(C)CCCOc1ccc(-c2nnc(CSCc3cc4ccccc4s3)o2)cc1 | 48.4 | 139 | –
CN(C)C/C=C/c1ccc(-c2nnc(CSCCOc3ccccc3)o2)cc1 | 3.7 | 11.6 | –
c1ccc(OCCSCc2nnc(-c3ccc(OCCCN4CCCC4)cc3)o2)cc1 [drawing 51] | 14.3 | 18.1 | –
CN(C)CCCOc1ccc(-c2nnc(CSCc3ccc4ccccc4c3)o2)cc1 | 22.4 | 50.6 | –
c1ccc(OCCSCc2nnc(-c3ccc(OCc4cccnc4)cc3)o2)cc1 [drawing 61] | 2900 | 6890 | –
CN(C)CCCOc1ccc(-c2cnc(CSCCOc3ccccc3)o2)cc1 | 4.3 | 15 | –
c1ccc(OCCSCc2ncc(-c3ccc(OCCN4CCCCC4)cc3)o2)cc1 | 11.6 | 7.3 | –
